In patent publication US20120088688A1, “IN VITRO ASSAY FOR IDENTIFICATION OF ALLERGENIC PROTEINS” (BIOVATOR TECHNOLOGIES AB, priority 2005, published 2012):
Structures can show the parent of a compound that is named as a salt.

Tested on: Mono Mac 6 cells
Assay: Micro array gene expression profiling (HG_U95Av2 chip) of Mono Mac 6 cells following allergen treatment
Assay type: cell-based, human
Details: for Number of up regulated genes: Mono Mac 6 cells
Method: The cell line Mono Mac 6 (AstraZeneca Cell Storage and Retrieval, Alderley Park, UK) was cultivated in RPMI 1640 medium with 10 mM HEPES buffer (Gibco, UK), 2 mM L-glutamine, 9 μg/mL human insulin, 1.0 mM sodium pyruvate, 10% fetal bovine serum, 5.6 μl/mL glucose, 100 U/mL penicillin and 100 μg/ml streptomycin. Fresh medium for cultivation was added or changed frequently (every 2:nd or 3:rd day), maintaining a cell density of viable cells/mL between 0.5×10^6 and 1.0×10^6. The cell line was in suspension/loosely adherent and sub cultures were prepared when needed by scraping. The plates were cultivated in an inclined position at 37° C. and 5% CO2 in a Galaxy R (Lab Rum Klimat Ab, Sweden) incubator
Cells were treated with four different allergens, according to table 2, in duplicate cultures. The test substances were all diluted in double distilled water. The duplicate cultures were treated at different exposure days. All treatments were 6 hours and control cells were left unexposed.
20 individual cultures with 500 000 cells per culture were treated identical for each substance. After 6 h exposure identical treated cells were harvest and pooled into a 50 ml Falcontube, pelleted at 540 g for 5 minutes in 7° C. […] The supernatant was removed and the cells were freeze-dried with liquid nitrogen and thereafter put into −152° C. freezer until further preparation.
Experimental procedures were performed according to Gene Chip®Expression Analysis Technical Manual (rev1, 2001) with minor modifications as described. Total RNA was prepared from frozen cells, according to Qiagen Rneasy Mini kit (Qiagen/WVR, Sweden). 30 μg of total RNA was used for cDNA synthesis and in vitro transcript labeling with biotin was performed according to Enzo BioArray RNA Transcription Labeling Kit (Enzo, U.S.A). cRNA quality was analyzed on a Agilent Bioanalyser 2001 (Agilent Technologies, U.S.A) and the concentration was measured on a Nano Droop (Saveen Werner, Sweden). 15 μg of fragmented cRNA was added to the hybridization-cocktail and hybridized to the HG_U95Av2 chip (Affymetrix, U.S.A) for 16 h at 45° C. The arrays were washed and stained with biotinylated anti streptavidin antibodies according to the EukGE_W2v4 protocol (Affymetrix, U.S.A) in the fluid station (Affymetrix, U.S.A).
Data obtained were analyzed using the MAS 5.0 model base. A detection call was calculated for all probe sets, representing if the transcript of a particular gene was present or absent, all absent genes were excluded from analysis.
To verify outliers and trends in data exploratory analysis was made with principle component analysis (PCA). Statistic analysis was made using student's t-test. It weights the variance in individual groups with the variance in all groups. Student's t-test was used to test for statistical significance compared with control. The p-value obtained describes the probability of statistically finding a false positive probe set. Fold change (fc) represents the quotient between the two compared chip.
The average signal value from all treated groups were compared with control signals.
All probe sets with signal value<50 in all groups were excluded from analysis. […] The remaining probe sets were ranked after fc.

## CC1(C)S[C@@H]2[C@H](NC(=O)Cc3ccccc3)C(=O)N2[C@H]1C(=O)O [penicillin G, Benzylpenicillin sodium salt]
Cut off fc >2
  Number of up regulated genes: 4
Cut off fc >4
  Number of up regulated genes: 1
Cut off fc >6
  Number of up regulated genes: 0
Cut off fc >10
  Number of up regulated genes: 0
Gene GPR15
  vs ctrl fc, GPR15: 2.2
Gene IFITM3
  vs ctrl fc, IFITM3: 3.3
Gene XK
  vs ctrl fc, XK: 2.6
Systematic name none, c 33.28 unnamed HERV-H protein mRNA
  vs ctrl fc, c 33.28 unnamed HERV-H protein mRNA: 9.1
